Assay results from US9174966B2, “Crystalline forms of 6-(1H-imidazol-1-yl)-2-phenylquinazoline” (ROTTAPHARM S.P.A., priority 2009, dated 2015).
Converted amounts (≈) assume the structure as drawn. “Also recorded” adds a separate entry of the source. Where two headings read alike, the source gives them in different places.

Columns and labels:
[1] = BCS (Biopharmaceutical Classification System) classification; type: physicochemical; conditions: high permeability, low solubility
Text: To take these two factors into account, a classification of drug products was introduced, known as BCS (Biopharmaceutical Classification System) (G L Amidon et al., Pharm. Res. 1995, 12: 413-419). Since it is endowed with good permeability and low solubility, 6-(1H-imidazol-1-yl)-2-phenylquinazoline falls into class II (high permeability, low solubility) of the BCS system. For the drug products of this class, the solubility is fundamental in determining their absorption. The preparation of pharmaceutically acceptable salts generally represents a means for increasing the solubility of sparingly soluble products, and, in the case of products endowed with good permeability, is a suitable means for increasing their bioavailability.

[2] = Pharmacokinetics in rats, oral versus intravenous administration; type: in vivo; conditions: for half-life: read-out: T½; for Tmax: read-out: Tmax (converted)
Protocol: The samples are analysed by HPLC-MS to determine the content of 6-(1H-imidazol-1-yl)-2-phenylquinazoline, using diphenylhydramine hydrochloride as internal standard. The pharmacokinetic parameters measured are summarized hereinbelow: it is noted that, despite the fact that the polymorph under consideration is of low solubility, the bioavailability (F %) is entirely acceptable.
The pharmacokinetic parameters measured are summarized hereinbelow: it is noted that the salt under consideration has optimum bioavailability (F %). […]

[3] = Stability to mechanical stress (milling, XRPD); type: physicochemical; conditions: Retsch MM 200 mill, 50 Hz, 5 min.
Protocol: 6-(1H-Imidazol-1-yl)-2-phenylquinazoline, polymorph A, was subjected to milling by means of a Retsch MM 200 mill, at 50 Hz for 5 min., and the product thus obtained was analysed by XRPD.
6-(1H-Imidazol-1-yl)-2-phenylquinazoline succinate form A, was subjected to milling by means of a Retsch MM 200 mill, at 50 Hz for 5 min., and the product thus obtained was subjected to XRPD analysis.
6-(1H-Imidazol-1-yl)-2-phenylquinazoline L-tartrate dihydrate, form A, was subjected to milling by means of a Retsch MM 200 mill, at 50 Hz for 5 min., and the product thus obtained was subjected to XRPD analysis.
6-(1H-Imidazol-1-yl)-2-phenylquinazoline maleate, form A, was subjected to milling by means of a Retsch MM 200 mill, at 50 Hz for 5 min., and the product thus obtained was subjected to XRPD analysis.

[4] = physchem; conditions: 37 °C, pH 2, aqueous buffer, thermodynamic from solid
Protocol: A sample of 6-(1H-imidazol-1-yl)-2-phenylquinazoline, polymorph A (150 mg), is stirred in a phosphate buffer solution at pH 7.4 (8 mL), at 500 rpm, so as to obtain a suspension, for 24 hours at 37° C. The suspension is then filtered and the concentration of the dissolved product is measured by reading the UV absorbance at 260 nm. […] A sample of 6-(1H-imidazol-1-yl)-2-phenylquinazoline, polymorph A (250 mg), is stirred in a phosphate buffer solution at pH 2 (2 mL), at 500 rpm, so as to obtain a suspension, for 24 hours at 37° C. The suspension is then filtered and the concentration of the dissolved product is measured by reading the UV absorbance at 260 nm.
A sample of 6-(1H-imidazol-1-yl)-2-phenylquinazoline, form B, (50 mg), is stirred in a phosphate buffer solution at pH 7.4 (2 mL), at 500 rpm, so as to obtain a suspension, for 24 hours at 37° C. The suspension is then filtered and the concentration of the dissolved product is measured by reading the UV absorbance at 260 nm.
A sample of 6-(1H-imidazol-1-yl)-2-phenylquinazoline, form C (30 mg), is stirred in a phosphate buffer solution at pH 7.4 (2 mL), at 500 rpm, so as to obtain a suspension, for 24 hours at 37° C. The suspension is then filtered and the concentration of the dissolved product is measured by reading the UV absorbance at 260 nm. […]

[5] = Thermal stability of the crystalline form (XRPD); conditions: XRPD
[6] = Solubility in aqueous solution of NaCl 0.9% (UV absorbance at 260 nm); type: physicochemical; conditions: aqueous solution of NaCl 0.9%, 37 °C, saline or isotonic, thermodynamic from solid, aqueous NaCl 0.9%, stirred 500 rpm, 24 hours at 37° C.
Protocol: The solubility is 0.6 mg/mL. […]
The sample of 6-(1H-imidazol-1-yl)-2-phenylquinazoline phosphate, form A, is stirred in an aqueous solution of NaCl 0.9%, at 500 rpm, so as to obtain a suspension (50 mg in 2 mL), for 24 hours at 37° C.
(§1) The sample of 6-(1H-imidazol-1-yl)-2-phenylquinazoline phosphate, form A, is stirred in an aqueous solution of NaCl 0.9%, at 500 rpm, so as to obtain a suspension (70 mg in 2 mL), for 24 hours at 37° C. […] The dissolution rate is measured by adding 2 mg of product to 40 mL of water at 37° C., stirring at 500 rpm, and measuring the absorbance at 260 nm every 0.05 min; the dissolution rate is found to be 1.9×10^−4 gr/min.

[7] = Dissolution rate in water at 37° C.; type: physicochemical; conditions: 2 mg of product in 40 mL of water at 37° C., 500 rpm, absorbance at 260 nm
Protocol: as §1

[8] = Stability to moisture, DVS analysis (Differential Vapour Sorption); type: physicochemical; conditions: 25° C., hydration/dehydration cycle; tartrate dihydrate
Protocol: The sample placed on a microbalance is subjected, in a chamber of controlled humidity, at 25° C., to a cycle of hydration (increasing humidity, red line) and of dehydration (decreasing humidity, blue line).
The sample of 6-(1H-imidazol-1-yl)-2-phenylquinazoline succinate form A was subjected to DVS analysis (as described in Example 32).
The sample of 6-(1H-imidazol-1-yl)-2-phenylquinazoline L-tartrate dihydrate, form A, was subjected to DVS analysis.
The sample of 6-(1H-imidazol-1-yl)-2-phenylquinazoline maleate, form A, was subjected to DVS analysis.

[9] = Hygroscopicity noted for the isolated crystalline product; type: physicochemical; conditions: as noted in the preparation example
[10] = rat, blood, iv, 5 mg/kg, IV, 5 mg/kg
[11] = rat, blood, po, 10 mg/kg, OS (oral), 10 mg/Kg

| Structure (SMILES) | BCS class [1] | V ([2]; IV, 5 mg/kg) | F (bioavailability) ([2]; OS 10 mg/Kg compared with IV 5 mg/kg) | CL ([2]; OS (oral), 10 mg/Kg) | V ([2]; OS (oral), 10 mg/Kg) | clearance ([2]; rat, blood, iv, 5 mg/kg) | half-life [2, 10] | Tmax [2, 11] | half-life [2, 11] | stability to milling [3] | solubility at 24 h [4] | thermal stability of crystalline form ([5]; 40° C., RH 85%, 5 days (at least 5 days for polymorph A)) | thermal stability of crystalline form ([5]; 90° C., 12 hours (or at least 12 hours)) | solubility at 24 h [6] | dissolution rate [7] | bioavailability ([2]; rat, blood, OS 10 mg/Kg compared with IV 5 mg/kg, read-out: F (bioavailability)) | hygroscopicity (DVS) [8] | hygroscopicity of the isolated product [9] | thermal stability of crystalline form ([5]; 40° C., 70% RH, 7 days) | thermal stability of crystalline form ([5]; 90° C., 12 hours (or at least 12 hours), tartrate dihydrate) |
| --- | --- | --- | --- | --- | --- | --- | --- | --- | --- | --- | --- | --- | --- | --- | --- | --- | --- | --- | --- | --- |
| c1ccc(-c2ncc3cc(-n4ccnc4)ccc3n2)cc1 [6-(1H-imidazol-1-yl)-2-phenylquinazoline] | class II |  |  |  |  |  |  |  |  |  |  |  |  |  |  |  |  |  |  |  |
| c1ccc(-c2ncc3cc(-n4ccnc4)ccc3n2)cc1 [polymorph A, 6-(1H-imidazol-1-yl)-2-phenylquinazoline] |  | 1.28 L/kg | 50.3% | 22 mL/min/kg | 1.60 L/kg | 21 mL/min/kg | 42.1 min | 100 min | 45.4 min | without any contamination with other crystalline forms, and no appreciable formation of amorphous material | 1800 µg/mL (≈ 6.61 mM) | stable | stable |  |  |  |  |  |  |  |
| O=C(O)C(O)C(O)C(=O)O.c1ccc(-c2ncc3cc(-n4ccnc4)ccc3n2)cc1 [tartrate form A, 6-(1H-imidazol-1-yl)-2-phenylquinazoline (L) tartrate dihydrate] |  | 1.4 L/kg |  | 17 mL/min/kg | 5.47 L/kg | 23 mL/min/kg | 47.7 min | 100 min | 47.2 min | has not undergone any changes of crystalline form, and a slight increase in the presence of amorphous product is revealed |  |  |  | 2500 µg/mL | 1.04×10^−3 gr/min | 81% | not hygroscopic in the range 25-70% RH; also recorded: point of inflection at 75% RH; also recorded: highly hygroscopic only at values of greater than 80% RH | non-hygroscopic | stable | gives rise to the amorphous form |
